Measured values reported in US10023708B2, “Method of producing a delivery device” (PTT HOLDING APS, priority 2011, dated 2018).

How the values were obtained:
[1] = Release of miconazole nitrate from loaded IPN discs versus PDMS discs; format: physicochemical; conditions: 75° C., 2 hours
Method: a) 10 PDMS (Polydimethylsiloxane) (silpuran 6000/40 supplied by Wacker) discs within the same mass range were used per high pressure vessel for loading drug into PDMS. […] The reactors were then coupled to a scCO2 system. scCO2 was applied at 350 bars until the pressure inside the reactors also reached 350 bars. The pressure remained at 350 bars throughout the procedure. The reaction was left for equilibration for 2 hours. d) The pressure was released, and the discs loaded with miconazole nitrate were gently cleaned with ethanol, and stored protected from light. a) 10 PDMS (Polydimethylsiloxane) discs within the same mass range were used per high pressure vessel for loading drug into PDMS. […] The reactors were then coupled to a scCO2 system. scCO2 was applied at 350 bars until the pressure inside the reactors also reached 350 bars. This pressure was maintained throughout the procedure. The reaction was left for equilibration for 2 hours. d) The pressure was released, and the discs loaded with miconazole nitrate were gently cleaned with ethanol, and stored protected from light.

[2] = Determination of work of adhesion Wsc between chemical compound and first polymer; format: physicochemical
Excerpt: (§1) The “work of adhesion” between two dissimilar materials is a measure of the energy required to separate the two dissimilar materials from each other. The work of adhesion is indicated with Wxy, wherein x and y respectively are the two dissimilar materials in question. Wxy is herein determined in joule per square meter of contact area of the x and y material to be separated (J/m^2). The contact area of the second polymer and the chemical component is proportional to the amount of a given chemical component and accordingly the Whc value could also be determined as J/mol chemical component. Work of adhesion (Whc) between the second polymer (h) and the chemical component (c) is determined according to the formula: Whc=γhn+γcn−γch, wherein γhn is the interfacial tension between h and n, γcn is the interfacial tension between c and n, and γch is the interfacial tension between c and h, where h=second polymer, n=normal saline and c=chemical component. The respective values of interfacial tension can be determined by any well known method or they can be calculated. Interfacial tensions can be determined from surface tensions of the individual compound, which can be measured or estimated from e.g. HSP which can be measured or estimated from group contribution calculations based on the chemical structure of the individual compound in question. […] At 1 bar and 25° C. the respective work of adhesion between sulfamethizole and the two polymers PDMS and PHEMA of the IPN of Example 1 was determined with respectively EtOH and water as loading solvents. Work of adhesion between sulfamethizole and the two polymers PDMS and PHEMA of the IPN of Example 1 was determined with varying volume fractions of EtOH in a loading solvent of EtOH and scCO2. The determination was determined at 300 bars and 75° C.

[3] = Determination of work of adhesion Whc between chemical compound and second polymer; format: physicochemical
Excerpt: as §1

[4] = Release of sulfamethizole from loaded IPN discs soaked in phosphate buffer; format: physicochemical; conditions: soaked in phosphate buffer solution at pH 4.5 over a period of about 14 days
Method: 2.5 g sulfamethizole (Unikem) was mixed with 60 ml sodium thiosulfate solution (12 ml 0.1 M was diluted to 60 ml using deionized water).
Drug loading was performed by placing 10 discs obtained from Example 1 in a 16 ml reactor. 2.00 ml of the above sulfamethizole mixture and 2.00 ml 99.8% EtOH supplied by Merck (Germany) was fed to the reactor. The discs were kept under stirring during the treatment time. The pressure in the reactor was initially raised to about 100 bars and with a temperature of about 44° C. Thereafter the temperature was raised to 75° C. and the pressure increased to 300 bars with CO2 (N48 CO2 supplied by Air Liquid Denmark A/S).

[5] = Loading of Ceragenin CSA-13 into IPN discs and its release; conditions: IPN discs about 20% PHEMA loaded in EtOH + CO2
Method: 6 IPN discs (010 mm, thickness 1-2 mm) obtained from Example 1 and with about 20% PHEMA (total mass about 1.3266 g) was loaded with about 500 mg Ceragenin CSA-13. The loading solvent was 2.00 ml 99.8% EtOH supplied by Merck (Germany) and N48 CO2 (supplied by Air Liquid Denmark A/S (Denmark)). The Ceragenin CSA-13 was initially dissolved in the 2.00 ml 99.8% EtOH and injected into a reactor of 16 ml comprising the discs. The pressure was raised to about 300 bars by injecting CO2 and the temperature was raised to about 75° C. The discs were treated at this pressure and temperature under stirring (1100 rpm) for 21 hours and 50 minutes, where after the pressure was reduced, the discs were withdrawn and allowed to cool down.

[6] = 1 bar, 25° C., loading solvent EtOH
[7] = 1 bar, 25° C., loading solvent Water
[8] = 300 bars, 75° C., volume fractions EtOH 0.0000 / scCO2 1.0000
[9] = 300 bars, 75° C., volume fractions EtOH 0.0625 / scCO2 0.9375
[10] = 300 bars, 75° C., volume fractions EtOH 0.1250 / scCO2 0.8750
[11] = 300 bars, 75° C., volume fractions EtOH 0.1875 / scCO2 0.8125
[12] = 300 bars, 75° C., volume fractions EtOH 0.2500 / scCO2 0.7500
[13] = 300 bars, 75° C., volume fractions EtOH 0.3125 / scCO2 0.6875
[14] = 300 bars, 75° C., volume fractions EtOH 0.3750 / scCO2 0.6250
[15] = 300 bars, 75° C., volume fractions EtOH 0.4375 / scCO2 0.5625
[16] = 300 bars, 75° C., volume fractions EtOH 0.5000 / scCO2 0.5000
[17] = 300 bars, 75° C., volume fractions EtOH 0.5625 / scCO2 0.4375
[18] = 300 bars, 75° C., volume fractions EtOH 0.6250 / scCO2 0.3750
[19] = 300 bars, 75° C., volume fractions EtOH 0.6875 / scCO2 0.3125
[20] = 300 bars, 75° C., volume fractions EtOH 0.7500 / scCO2 0.2500
[21] = 300 bars, 75° C., volume fractions EtOH 0.8125 / scCO2 0.1875
[22] = 300 bars, 75° C., volume fractions EtOH 0.8750 / scCO2 0.1250
[23] = 300 bars, 75° C., volume fractions EtOH 0.9375 / scCO2 0.0625
[24] = 300 bars, 75° C., volume fractions EtOH 1.0000 / scCO2 0.0000

Clc1ccc(COC(Cn2ccnc2)c2ccc(Cl)cc2Cl)c(Cl)c1 (stereo not drawn) [miconazole nitrate]
amount releasable from the IPN discs compared with the PDMS discs ([1]; Test 1: loaded using scCO2, 350 bars): much higher
amount releasable from the IPN discs compared with the PDMS discs ([1]; Test 2: loaded using scCO2 and methanol, 350 bars): much higher

Cc1nnc(NS(=O)(=O)c2ccc(N)cc2)s1 [sulfamethizole]
Work of adhesion Wsc s = PDMS c = sulfamethizole [2, 6]: 6.3434 J/m^2
Work of adhesion Wsc s = PDMS c = sulfamethizole [2, 7]: 57.7309 J/m^2
Work of adhesion Wsc s = PDMS c = sulfamethizole [2, 8]: 14.1969 J/m^2
Work of adhesion Wsc s = PDMS c = sulfamethizole [2, 9]: 11.2585 J/m^2
Work of adhesion Wsc s = PDMS c = sulfamethizole [2, 10]: 8.714 J/m^2
Work of adhesion Wsc s = PDMS c = sulfamethizole [2, 11]: 6.5641 J/m^2
Work of adhesion Wsc s = PDMS c = sulfamethizole [2, 12]: 4.8092 J/m^2
Work of adhesion Wsc s = PDMS c = sulfamethizole [2, 13]: 3.4498 J/m^2
Work of adhesion Wsc s = PDMS c = sulfamethizole [2, 14]: 2.4864 J/m^2
Work of adhesion Wsc s = PDMS c = sulfamethizole [2, 15]: 1.9195 J/m^2
Work of adhesion Wsc s = PDMS c = sulfamethizole [2, 16]: 1.7497 J/m^2
Work of adhesion Wsc s = PDMS c = sulfamethizole [2, 17]: 1.9773 J/m^2
Work of adhesion Wsc s = PDMS c = sulfamethizole [2, 18]: 2.6029 J/m^2
Work of adhesion Wsc s = PDMS c = sulfamethizole [2, 19]: 3.6271 J/m^2
Work of adhesion Wsc s = PDMS c = sulfamethizole [2, 20]: 5.0502 J/m^2
Work of adhesion Wsc s = PDMS c = sulfamethizole [2, 21]: 6.8727 J/m^2
Work of adhesion Wsc s = PDMS c = sulfamethizole [2, 22]: 9.0953 J/m^2
Work of adhesion Wsc s = PDMS c = sulfamethizole [2, 23]: 11.7183 J/m^2
Work of adhesion Wsc s = PDMS c = sulfamethizole [2, 24]: 14.7422 J/m^2
Work of adhesion Whc h = PHEMA c = sulfamethizole [3, 6]: 3.8908 J/m^2
Work of adhesion Whc h = PHEMA c = sulfamethizole [3, 7]: 38.3326 J/m^2
Work of adhesion Whc h = PHEMA c = sulfamethizole [3, 8]: 29.8588 J/m^2
Work of adhesion Whc h = PHEMA c = sulfamethizole [3, 9]: 25.3418 J/m^2
Work of adhesion Whc h = PHEMA c = sulfamethizole [3, 10]: 21.2182 J/m^2
Work of adhesion Whc h = PHEMA c = sulfamethizole [3, 11]: 17.4885 J/m^2
Work of adhesion Whc h = PHEMA c = sulfamethizole [3, 12]: 14.1531 J/m^2
Work of adhesion Whc h = PHEMA c = sulfamethizole [3, 13]: 11.2126 J/m^2
Work of adhesion Whc h = PHEMA c = sulfamethizole [3, 14]: 8.6675 J/m^2
Work of adhesion Whc h = PHEMA c = sulfamethizole [3, 15]: 6.5181 J/m^2
Work of adhesion Whc h = PHEMA c = sulfamethizole [3, 16]: 4.7652 J/m^2
Work of adhesion Whc h = PHEMA c = sulfamethizole [3, 17]: 3.4091 J/m^2
Work of adhesion Whc h = PHEMA c = sulfamethizole [3, 18]: 2.4503 J/m^2
Work of adhesion Whc h = PHEMA c = sulfamethizole [3, 19]: 1.8894 J/m^2
Work of adhesion Whc h = PHEMA c = sulfamethizole [3, 20]: 1.7267 J/m^2
Work of adhesion Whc h = PHEMA c = sulfamethizole [3, 21]: 1.9629 J/m^2
Work of adhesion Whc h = PHEMA c = sulfamethizole [3, 22]: 2.5985 J/m^2
Work of adhesion Whc h = PHEMA c = sulfamethizole [3, 23]: 3.6338 J/m^2
Work of adhesion Whc h = PHEMA c = sulfamethizole [3, 24]: 5.0694 J/m^2
amount of loaded compound released from the discs [4]: the major amount

CCCCCCCCNCCC[C@@H](C)[C@H]1CC[C@H]2[C@@H]3[C@H](OCCCN)C[C@@H]4C[C@H](OCCCN)CC[C@]4(C)[C@H]3C[C@H](OCCCN)[C@]12C [Ceragenin CSA-13]
release from the delivery device, microbiological effect [5]: can be released in sufficient amounts to provide a significant microbiological effect
